Holding throughout (assay): colorimetric ATPase assay
Test [1] addresses DNA polymerase III subunit tau (Escherichia coli, UniProt P06710). Conditions: pH 7.5; 37 °C.
In test [2] the target is Complex of Sliding-clamp-loader large subunit [R175L] and Sliding-clamp-loader small subunit (Enterobacteria phage T4, UniProt P04526, R175L). Conditions: pH 7.5; 25 °C. The procedure: (§1) ATPase assay contained 10 mM Mg2+, 1uM 13/20 DNA, 500uM (r)NTP or (d)NTP, 500 nM gp45, and 500 nM gp44/62 in T4 buffer. ATPase activity was measured by monitoring the release of Pi using a malachite green assay (31) or via the hydrolysis of [gamma-32P]-ATP.

In test [3] the target is Complex of Sliding-clamp-loader large subunit [R175K] and Sliding-clamp-loader small subunit (Enterobacteria phage T4, UniProt P04526, R175K). Conditions: pH 7.5; 25 °C. The procedure:
as §1

For test [4], the target named is T1, Sliding-clamp-loader large/small subunit (Enterobacteria phage T4, UniProt P04526+P04527).
T1 sequence (P04526 whole entry): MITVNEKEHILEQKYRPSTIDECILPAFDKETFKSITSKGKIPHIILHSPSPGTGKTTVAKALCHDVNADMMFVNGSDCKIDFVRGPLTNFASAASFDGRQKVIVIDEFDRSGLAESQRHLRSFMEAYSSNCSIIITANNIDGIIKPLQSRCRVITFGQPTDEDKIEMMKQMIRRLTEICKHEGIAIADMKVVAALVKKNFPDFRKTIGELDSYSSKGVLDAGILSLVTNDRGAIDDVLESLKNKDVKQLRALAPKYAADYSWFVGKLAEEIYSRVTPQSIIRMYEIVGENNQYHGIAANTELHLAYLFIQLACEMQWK
T1 sequence (P04527 whole entry): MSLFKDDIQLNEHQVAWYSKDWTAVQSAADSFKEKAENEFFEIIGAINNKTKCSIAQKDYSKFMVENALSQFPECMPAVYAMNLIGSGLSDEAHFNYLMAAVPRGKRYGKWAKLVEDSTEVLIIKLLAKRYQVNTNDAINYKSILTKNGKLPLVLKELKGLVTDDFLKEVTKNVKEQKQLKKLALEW
Conditions: pH 7.5; 25 °C. The procedure: as §1

Complex of Sliding-clamp-loader large subunit [R175K] and Sliding-clamp-loader small subunit, sequence (P04526 as listed by the source R175K): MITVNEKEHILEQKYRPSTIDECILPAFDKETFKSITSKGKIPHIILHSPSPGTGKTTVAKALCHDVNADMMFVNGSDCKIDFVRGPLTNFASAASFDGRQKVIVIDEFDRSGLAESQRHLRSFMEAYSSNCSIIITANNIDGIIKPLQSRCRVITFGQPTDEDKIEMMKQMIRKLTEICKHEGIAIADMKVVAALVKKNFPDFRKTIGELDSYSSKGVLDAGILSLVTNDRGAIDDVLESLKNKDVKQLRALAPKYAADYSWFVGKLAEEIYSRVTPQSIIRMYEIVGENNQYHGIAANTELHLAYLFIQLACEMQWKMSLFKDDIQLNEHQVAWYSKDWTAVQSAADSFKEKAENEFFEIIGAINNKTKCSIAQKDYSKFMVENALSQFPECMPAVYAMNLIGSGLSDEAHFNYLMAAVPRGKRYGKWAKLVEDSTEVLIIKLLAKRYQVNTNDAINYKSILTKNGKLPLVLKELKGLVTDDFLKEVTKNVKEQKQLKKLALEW
Complex of Sliding-clamp-loader large subunit [R175L] and Sliding-clamp-loader small subunit, sequence (P04526 as listed by the source R175L): as the sequence (P04526 as listed by the source R175K) above, with K175L counted along it
DNA polymerase III subunit tau, sequence (P06710 whole entry): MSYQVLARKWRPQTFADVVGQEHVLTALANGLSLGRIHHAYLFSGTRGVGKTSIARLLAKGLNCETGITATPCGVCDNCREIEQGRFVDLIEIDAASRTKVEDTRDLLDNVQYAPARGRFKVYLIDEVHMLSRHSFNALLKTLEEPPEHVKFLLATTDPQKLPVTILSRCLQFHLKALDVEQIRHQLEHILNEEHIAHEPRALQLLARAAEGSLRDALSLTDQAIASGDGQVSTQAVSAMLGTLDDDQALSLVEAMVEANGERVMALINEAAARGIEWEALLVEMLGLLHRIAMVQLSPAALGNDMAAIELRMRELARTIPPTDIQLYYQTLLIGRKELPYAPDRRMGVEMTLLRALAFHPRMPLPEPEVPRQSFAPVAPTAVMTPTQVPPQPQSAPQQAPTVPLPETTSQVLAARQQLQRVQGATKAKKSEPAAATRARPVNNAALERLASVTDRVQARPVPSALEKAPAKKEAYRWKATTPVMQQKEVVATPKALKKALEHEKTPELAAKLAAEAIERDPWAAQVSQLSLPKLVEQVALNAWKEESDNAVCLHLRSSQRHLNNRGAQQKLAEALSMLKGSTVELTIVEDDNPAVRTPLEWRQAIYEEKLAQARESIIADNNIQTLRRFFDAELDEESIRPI

On to `O=[N+]([O-])c1cccc2c1ccn2[C@H]1C[C@H](O)[C@@H](COP(=O)(O)OP(=O)(O)OP(=O)(O)O)O1` [4-nitro-indolyl-2'-deoxyriboside triphosphate], for which the inhibitory constant (Ki) in test [1] worked out at 11.1 µM; in test [2], 41.6 µM; in test [3] it was 30.2 µM; in test [4] it was 34.2 µM.

In the case of `Nc1ccc2c(ccn2[C@H]2C[C@H](O)[C@@H](COP(=O)(O)OP(=O)(O)OP(=O)(O)O)O2)c1` [5-amino-indolyl-2'-deoxyriboside triphosphate], the Ki was 45 µM in test [1] and over 200 µM in test [4].

For `O=P(O)(O)OP(=O)(O)OP(=O)(O)OC[C@H]1O[C@@H](n2ccc3cc(C4=CCCCC4)ccc32)C[C@@H]1O` [5-cyclohexene-indolyl-2'-deoxyriboside triphosphate], the Ki in test [1] amounted to 11.8 µM; in test [4] it was 10 µM.

For the compound `O=P(O)(O)OP(=O)(O)OP(=O)(O)OC[C@H]1O[C@@H](n2ccc3cc(C4CCCCC4)ccc32)C[C@@H]1O` [5-cyclohexyl-indolyl-2'-deoxyriboside triphosphate], the Ki in test [1] amounted to 24 µM; in test [4], 47.5 µM.

Consider `CCc1ccc2c(ccn2[C@H]2C[C@H](O)[C@@H](COP(=O)(O)OP(=O)(O)OP(=O)(O)O)O2)c1` [5-ethyl-indolyl-2'-deoxyriboside triphosphate], for which the Ki in test [1] was 9 µM; in test [2], 11 µM; in test [3], 25.2 µM; in test [4], 81.5 µM.

In the case of `C=Cc1ccc2c(ccn2[C@H]2C[C@H](O)[C@@H](COP(=O)(O)OP(=O)(O)OP(=O)(O)O)O2)c1` [5-ethylene-indolyl-2'-deoxyriboside triphosphate], the Ki was 30 µM in test [1], 34 µM in test [2], 26.2 µM in test [3] and over 200 µM in test [4].

`O=P(O)(O)OP(=O)(O)OP(=O)(O)OC[C@H]1O[C@@H](n2ccc3cc(F)ccc32)C[C@@H]1O` [5-fluoro-indolyl-2'-deoxyriboside triphosphate]: the results for the Ki in test [1] and in test [4] were 34 µM and over 200 µM, respectively.

The compound `O=[N+]([O-])c1ccc2c(ccn2[C@H]2C[C@H](O)[C@@H](COP(=O)(O)OP(=O)(O)OP(=O)(O)O)O2)c1` [5-nitro-indolyl-2'-deoxyriboside triphosphate] displayed a Ki in test [1] of 21.7 µM.

For the compound `O=P(O)(O)OP(=O)(O)OP(=O)(O)OC[C@H]1O[C@@H](n2ccc3cc(-c4ccccc4)ccc32)C[C@@H]1O` [5-phenyl-indolyl-2'-deoxyriboside triphosphate], the Ki in test [1] was 7.5 µM; in test [4], 42 µM.

For `O=[N+]([O-])c1ccc2ccn([C@H]3C[C@H](O)[C@@H](COP(=O)(O)OP(=O)(O)OP(=O)(O)O)O3)c2c1` [6-nitro-indolyl-2'-deoxyriboside triphosphate], the Ki in test [1] was found to be 8.1 µM; in test [2] it was 5 µM; in test [3] it was 9.1 µM; in test [4], 5.1 µM.

As to `Nc1ncnc2c1ncn2C1OC(COP(=O)(O)OP(=O)(O)OP(O)(O)=S)[C@@H](O)[C@H]1O` (stereo partly specified) [ATP{gamma}S], the Ki in test [1] amounted to 13 µM; in test [2], 33.2 µM; in test [3], 14 µM; in test [4] it was 28.9 µM.

Usually Ki stands for a measure of affinity in units of concentration, obtained from inhibition or displacement.

(Values after BindingDB's records for doi:10.1021/cb900218c (Case Western Reserve University, 2010).)
